Reference: US20180200257A1, “METHODS FOR THE TREATMENT OF INFLAMMATORY DISORDERS” (Galapagos NV, priority 2015, published 2018)

System: subjects with moderately to severely active RA who have an inadequate response to methotrexate (MTX)
Experiment: Study 1 (add-on to MTX) - Alanine Aminotransferase (ALT) levels
Type: in vivo, human
Experimental: Double-blind, placebo-controlled add on study in subjects with moderately to severely active RA who have an inadequate response to methotrexate (MTX) (oral or parenteral).
595 subjects randomized to one of 6 dose regimens of Compound 1 (dosed as [Compound 1:HCl:3H2O]) (3 dose levels administered either once or twice daily) or placebo on top of each subject's stable dose of MTX.
Compound 1 (dosed as [Compound 1:HCl:3H2O]) is dosed for twelve weeks once daily (q.d.) (50 mg, 100 mg or 200 mg) or twice daily (b.i.d.) (25 mg, 50 mg or 100 mg); or placebo.
At Week 12, the subjects on placebo who have not achieved 20% improvement in swollen joint count (SJC66) and tender joint count (TJC68) are re-randomized automatically to receive Compound 1 (dosed as a [Compound 1:HCl:3H2O]) either at 100 mg q.d. or 50 mg b.i.d. doses in a blinded fashion; subjects on 50 mg q.d. who have not achieved 20% improvement in SJC66 and TJC68 will be assigned to 100 mg q.d. and subjects on 25 mg b.i.d. that have not achieved a 20% improvement in SJC66 and TJC68 will be assigned to 50 mg b.i.d. Subjects who switch treatment at week 12 are handled as if they discontinued at week 12 for the purpose of statistical analysis, whereas subjects in the other groups will maintain their randomized treatment until Week 24.
ALT levels determination is available at Quest Diagnostics, Clinical Trials, Quest House, 125-135 Staines Road, Hounslow, Middlesex, TW3 3JB, United Kingdom under Catalogue n#84460.
ALT catalyzes the exchange of the amino group of alanine with the oxogroup of 2-ketoglutarate to form pyruvate and glutamate. In the presence of lactic dehydrogenase, pyruvate reacts with NADH to form NAD+, measured spectrophotometrically. Guidelines for the ALT value have been issued by the association for Clinical Biochemistry and Laboratory Medicine, 130-132 Tooley Street LONDON SE1 2TU, united Kingdom, wherein the ALT value should be below 34 U/l in Female and below 52 U/L in male.

[1] = 12 weeks results, 50 mg q.d., week 1
[2] = 12 weeks results, 50 mg q.d., week 2
[3] = 12 weeks results, 50 mg q.d., week 4
[4] = 12 weeks results, 50 mg q.d., week 8
[5] = 12 weeks results, 50 mg q.d., week 12
[6] = 12 weeks results, 100 mg q.d., week 1
[7] = 12 weeks results, 100 mg q.d., week 2
[8] = 12 weeks results, 100 mg q.d., week 4
[9] = 12 weeks results, 100 mg q.d., week 8
[10] = 12 weeks results, 100 mg q.d., week 12
[11] = 12 weeks results, 200 mg q.d., week 1
[12] = 12 weeks results, 200 mg q.d., week 2
[13] = 12 weeks results, 200 mg q.d., week 4
[14] = 12 weeks results, 200 mg q.d., week 8
[15] = 12 weeks results, 200 mg q.d., week 12
[16] = 12 weeks results, 2 × 25 mg b.i.d., week 1
[17] = 12 weeks results, 2 × 25 mg b.i.d., week 2
[18] = 12 weeks results, 2 × 25 mg b.i.d., week 4
[19] = 12 weeks results, 2 × 25 mg b.i.d., week 8
[20] = 12 weeks results, 2 × 25 mg b.i.d., week 12
[21] = 12 weeks results, 2 × 50 mg b.i.d., week 1
[22] = 12 weeks results, 2 × 50 mg b.i.d., week 2
[23] = 12 weeks results, 2 × 50 mg b.i.d., week 4
[24] = 12 weeks results, 2 × 50 mg b.i.d., week 8
[25] = 12 weeks results, 2 × 50 mg b.i.d., week 12
[26] = 12 weeks results, 2 × 100 mg b.i.d., week 1
[27] = 12 weeks results, 2 × 100 mg b.i.d., week 2
[28] = 12 weeks results, 2 × 100 mg b.i.d., week 4
[29] = 12 weeks results, 2 × 100 mg b.i.d., week 8
[30] = 12 weeks results, 2 × 100 mg b.i.d., week 12
[31] = 24 weeks results, continued 25 mg b.i.d., week 1
[32] = 24 weeks results, continued 25 mg b.i.d., week 2
[33] = 24 weeks results, continued 25 mg b.i.d., week 4
[34] = 24 weeks results, continued 25 mg b.i.d., week 8
[35] = 24 weeks results, continued 25 mg b.i.d., week 12
[36] = 24 weeks results, continued 25 mg b.i.d., week 16
[37] = 24 weeks results, continued 25 mg b.i.d., week 20
[38] = 24 weeks results, continued 25 mg b.i.d., week 24
[39] = 24 weeks results, continued 50 mg b.i.d., week 1
[40] = 24 weeks results, continued 50 mg b.i.d., week 2
[41] = 24 weeks results, continued 50 mg b.i.d., week 4
[42] = 24 weeks results, continued 50 mg b.i.d., week 8
[43] = 24 weeks results, continued 50 mg b.i.d., week 12
[44] = 24 weeks results, continued 50 mg b.i.d., week 16
[45] = 24 weeks results, continued 50 mg b.i.d., week 20
[46] = 24 weeks results, continued 50 mg b.i.d., week 24
[47] = 24 weeks results, continued 50 mg q.d., week 1
[48] = 24 weeks results, continued 50 mg q.d., week 2
[49] = 24 weeks results, continued 50 mg q.d., week 4
[50] = 24 weeks results, continued 50 mg q.d., week 8

## O=C(Nc1nc2cccc(-c3ccc(CN4CCS(=O)(=O)CC4)cc3)n2n1)C1CC1 [Compound 1, cyclopropanecarboxylic acid {5-[4-(1,1-dioxo-thiomorpholin-4-ylmethyl)-phenyl]-[1,2,4]triazolo[1,5-a]pyridin-2-yl}-amide]
[1]
  Study 1 - ALT Mean CFB: 1 IU/L
  Study 1 - ALT Mean percentage CFB: 5%
[2]
  Study 1 - ALT Mean CFB: −1 IU/L
  Study 1 - ALT Mean percentage CFB: 0%
[3]
  Study 1 - ALT Mean CFB: −1 IU/L
  Study 1 - ALT Mean percentage CFB: 4%
[4]
  Study 1 - ALT Mean CFB: 0 IU/L
  Study 1 - ALT Mean percentage CFB: 9%
[5]
  Study 1 - ALT Mean CFB: 0 IU/L
  Study 1 - ALT Mean percentage CFB: 12%
[6]
  Study 1 - ALT Mean CFB: 3 IU/L
  Study 1 - ALT Mean percentage CFB: 14%
[7]
  Study 1 - ALT Mean CFB: 1 IU/L
  Study 1 - ALT Mean percentage CFB: 9%
[8]
  Study 1 - ALT Mean CFB: 1 IU/L
  Study 1 - ALT Mean percentage CFB: 9%
[9]
  Study 1 - ALT Mean CFB: 2 IU/L
  Study 1 - ALT Mean percentage CFB: 15%
[10]
  Study 1 - ALT Mean CFB: 2 IU/L
  Study 1 - ALT Mean percentage CFB: 16%
[11]
  Study 1 - ALT Mean CFB: 2 IU/L
  Study 1 - ALT Mean percentage CFB: 11%
[12]
  Study 1 - ALT Mean CFB: 1 IU/L
  Study 1 - ALT Mean percentage CFB: 16%
[13]
  Study 1 - ALT Mean CFB: 1 IU/L
  Study 1 - ALT Mean percentage CFB: 15%
[14]
  Study 1 - ALT Mean CFB: 4 IU/L
  Study 1 - ALT Mean percentage CFB: 31%
[15]
  Study 1 - ALT Mean CFB: 3 IU/L
  Study 1 - ALT Mean percentage CFB: 34%
[16]
  Study 1 - ALT Mean CFB: −1 IU/L
  Study 1 - ALT Mean percentage CFB: 4%
[17]
  Study 1 - ALT Mean CFB: −2 IU/L
  Study 1 - ALT Mean percentage CFB: 2%
[18]
  Study 1 - ALT Mean CFB: −1 IU/L
  Study 1 - ALT Mean percentage CFB: 9%
[19]
  Study 1 - ALT Mean CFB: 0 IU/L
  Study 1 - ALT Mean percentage CFB: 11%
[20]
  Study 1 - ALT Mean CFB: 1 IU/L
  Study 1 - ALT Mean percentage CFB: 21%
[21]
  Study 1 - ALT Mean CFB: 1 IU/L
  Study 1 - ALT Mean percentage CFB: 8%
[22]
  Study 1 - ALT Mean CFB: 1 IU/L
  Study 1 - ALT Mean percentage CFB: 13%
[23]
  Study 1 - ALT Mean CFB: 3 IU/L
  Study 1 - ALT Mean percentage CFB: 24%
[24]
  Study 1 - ALT Mean CFB: 2 IU/L
  Study 1 - ALT Mean percentage CFB: 20%
[25]
  Study 1 - ALT Mean CFB: 2 IU/L
  Study 1 - ALT Mean percentage CFB: 28%
[26]
  Study 1 - ALT Mean CFB: 1 IU/L
  Study 1 - ALT Mean percentage CFB: 9%
[27]
  Study 1 - ALT Mean CFB: 1 IU/L
  Study 1 - ALT Mean percentage CFB: 10%
[28]
  Study 1 - ALT Mean CFB: 1 IU/L
  Study 1 - ALT Mean percentage CFB: 20%
[29]
  Study 1 - ALT Mean CFB: 1 IU/L
  Study 1 - ALT Mean percentage CFB: 25%
[30]
  Study 1 - ALT Mean CFB: 2 IU/L
  Study 1 - ALT Mean percentage CFB: 26%
[31]
  Study 1 - ALT Mean CFB: 0.8 IU/L
  Study 1 - ALT Mean percentage CFB: 8.9%
[32]
  Study 1 - ALT Mean CFB: −0.4 IU/L
  Study 1 - ALT Mean percentage CFB: 5.4%
[33]
  Study 1 - ALT Mean CFB: 0.3 IU/L
  Study 1 - ALT Mean percentage CFB: 10.9%
[34]
  Study 1 - ALT Mean CFB: 1.8 IU/L
  Study 1 - ALT Mean percentage CFB: 18.4%
[35]
  Study 1 - ALT Mean CFB: 2.5 IU/L
  Study 1 - ALT Mean percentage CFB: 28.6%
[36]
  Study 1 - ALT Mean CFB: 1.2 IU/L
  Study 1 - ALT Mean percentage CFB: 21.4%
[37]
  Study 1 - ALT Mean CFB: 0.0 IU/L
  Study 1 - ALT Mean percentage CFB: 15.2%
[38]
  Study 1 - ALT Mean CFB: 1.4 IU/L
  Study 1 - ALT Mean percentage CFB: 25.1%
[39]
  Study 1 - ALT Mean CFB: 0.6 IU/L
  Study 1 - ALT Mean percentage CFB: 8.5%
[40]
  Study 1 - ALT Mean CFB: 1.2 IU/L
  Study 1 - ALT Mean percentage CFB: 13.0%
[41]
  Study 1 - ALT Mean CFB: 2.5 IU/L
  Study 1 - ALT Mean percentage CFB: 24.2%
[42]
  Study 1 - ALT Mean CFB: 2.2 IU/L
  Study 1 - ALT Mean percentage CFB: 20.3%
[43]
  Study 1 - ALT Mean CFB: 2.1 IU/L
  Study 1 - ALT Mean percentage CFB: 27.6%
[44]
  Study 1 - ALT Mean CFB: 1.6 IU/L
  Study 1 - ALT Mean percentage CFB: 20.1%
[45]
  Study 1 - ALT Mean CFB: 3.0 IU/L
  Study 1 - ALT Mean percentage CFB: 26.2%
[46]
  Study 1 - ALT Mean CFB: 1.8 IU/L
  Study 1 - ALT Mean percentage CFB: 18.7%
[47]
  Study 1 - ALT Mean CFB: 0.9 IU/L
  Study 1 - ALT Mean percentage CFB: 6.6%
[48]
  Study 1 - ALT Mean CFB: −0.7 IU/L
  Study 1 - ALT Mean percentage CFB: 1.4%
[49]
  Study 1 - ALT Mean CFB: −0.6 IU/L
  Study 1 - ALT Mean percentage CFB: 4.8%
[50]
  Study 1 - ALT Mean CFB: 0.4 IU/L
  Study 1 - ALT Mean percentage CFB: 10.6%
